Results as given in patent publication US10781211B2, “Spirocycle compounds and methods of making and using same” (Lundbeck La Jolla Research Center, Inc., priority 2016, dated 2020).

Key:
Format in all cases: in vivo
Settings in all cases: 5 mg/kg oral gavage
MAGL = MAGL (Mus musculus (Mouse), UniProt O35678); assay: Mouse brain proteomes from inhibitor treated mice (oral gavage, sacrifice 4 h after administration, ABPP analysis)
Description: Preparation of Mouse Brain Proteomes from Inhibitor Treated Mice.
Inhibitors were administered to wild-type C57Bl/6J by oral gavage in a vehicle, e.g. PEG400/Ethanol/PBS (7/2/1). Each animal was sacrificed 4 h following administration and brain proteomes were prepared and analyzed according to previously established methods (See Niphakis, M. J., et al. (2011) ACS Chem. Neurosci. and Long, J. Z., et al. Nat. Chem. Biol. 5:37-44). Data from this assay is shown in Table 2 (% inhibition at 5 mg/kg).

ABHD6 = ABHD6 (Mus musculus (Mouse), UniProt Q8R2Y0); assay: Mouse brain proteomes from inhibitor treated mice (oral gavage, sacrifice 4 h after administration, ABPP analysis), ABHD6
Procedure, shortened: (§1)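 Values give % inhibition in brain after a 5 mg/kg oral gavage dose to wild-type C57Bl/6J mice, with vehicle e.g. PEG400/Ethanol/PBS (7/2/1). Animals were killed 4 h post-dose and brain proteome activity was read by ABPP.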

FAAH = FAAH (Mus musculus (Mouse), UniProt O08914); assay: Mouse brain proteomes from inhibitor treated mice (oral gavage, sacrifice 4 h after administration, ABPP analysis), FAAH
Procedure, shortened: as §1

ABHD6, sequence (Q8R2Y0 whole entry): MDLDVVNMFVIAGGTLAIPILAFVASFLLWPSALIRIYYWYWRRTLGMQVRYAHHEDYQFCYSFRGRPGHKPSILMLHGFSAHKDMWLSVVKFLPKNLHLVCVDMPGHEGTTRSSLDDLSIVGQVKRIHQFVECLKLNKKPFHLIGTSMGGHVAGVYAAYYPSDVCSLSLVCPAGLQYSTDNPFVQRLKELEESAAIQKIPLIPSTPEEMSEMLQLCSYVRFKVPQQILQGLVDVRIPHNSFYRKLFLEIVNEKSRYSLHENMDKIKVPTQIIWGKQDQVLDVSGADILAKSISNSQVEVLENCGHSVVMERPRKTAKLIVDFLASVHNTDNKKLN
MAGL, sequence (O35678 whole entry): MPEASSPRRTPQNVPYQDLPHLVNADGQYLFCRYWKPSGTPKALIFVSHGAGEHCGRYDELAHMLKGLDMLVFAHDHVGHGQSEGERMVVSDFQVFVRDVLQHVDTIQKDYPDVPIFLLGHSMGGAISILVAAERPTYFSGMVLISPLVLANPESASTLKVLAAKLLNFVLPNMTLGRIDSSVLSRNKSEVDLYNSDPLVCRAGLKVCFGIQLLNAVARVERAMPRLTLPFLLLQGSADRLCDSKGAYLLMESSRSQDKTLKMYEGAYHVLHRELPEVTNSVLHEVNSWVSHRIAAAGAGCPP
FAAH, sequence (O08914 whole entry): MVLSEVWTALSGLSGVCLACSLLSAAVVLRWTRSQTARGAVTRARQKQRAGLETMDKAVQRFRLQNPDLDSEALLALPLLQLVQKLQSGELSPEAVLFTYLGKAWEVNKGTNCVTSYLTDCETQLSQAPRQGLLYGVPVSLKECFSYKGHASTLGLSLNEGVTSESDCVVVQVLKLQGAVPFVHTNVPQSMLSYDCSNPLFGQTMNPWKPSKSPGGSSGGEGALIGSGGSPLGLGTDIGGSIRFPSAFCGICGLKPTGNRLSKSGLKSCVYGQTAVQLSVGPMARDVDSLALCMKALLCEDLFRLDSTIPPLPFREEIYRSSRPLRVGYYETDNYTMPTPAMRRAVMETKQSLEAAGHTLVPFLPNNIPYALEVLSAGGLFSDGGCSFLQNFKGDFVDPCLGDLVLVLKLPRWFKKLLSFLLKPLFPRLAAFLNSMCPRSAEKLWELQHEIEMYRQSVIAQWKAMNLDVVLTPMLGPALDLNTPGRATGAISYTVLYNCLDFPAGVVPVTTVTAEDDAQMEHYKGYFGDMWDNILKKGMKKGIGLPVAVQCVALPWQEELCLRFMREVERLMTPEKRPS

MAGL % Inh 5 mg/kg (mouse) (MAGL) | ABHD6 % Inh 5 mg/kg (mouse) (ABHD6) | FAAH % Inh 5 mg/kg (mouse) (FAAH) | SMILES
### (### is ≥ 75%) | # (# is < 25%) | # (# is < 25%) | O=C(OC(C(F)(F)F)C(F)(F)F)N1CCC2(CCCN2Cc2cc(N3CCS(=O)(=O)CC3)cc(C(F)(F)F)c2)CC1 [Example 42, 1,1,1,3,3,3-Hexafluoropropan-2-yl 1-(3-(1,1-dioxidothiomorpholino)-5-(trifluoromethyl)benzyl)-1,8-diazaspiro[4.5]decane-8-carboxylate]
### (### is ≥ 75%) | # (# is < 25%) | # (# is < 25%) | O=C(OC(C(F)(F)F)C(F)(F)F)N1CCC2(CCCN2Cc2cc(N3CC4COCC4C3)cc(C(F)(F)F)c2)CC1 (stereo not drawn) [Example 46, 1,1,1,3,3,3-Hexafluoropropan-2-yl 1-(3-(tetrahydro-1H-furo[3,4-c]pyrrol-5(3H)-yl)-5-(trifluoromethyl)benzyl)-1,8-diazaspiro[4.5]decane-8-carboxylate]
### (### is ≥ 75%) | # (# is < 25%) | # (# is < 25%) | O=C(OC(C(F)(F)F)C(F)(F)F)N1CCC2(CCCN2Cc2cc(N3CCC3)cc(C(F)(F)F)c2)CC1 [Example 47, 1,1,1,3,3,3-Hexafluoropropan-2-yl 1-(3-(azetidin-1-yl)-5-(trifluoromethyl)benzyl)-1,8-diazaspiro[4.5]decane-8-carboxylate]
# (# is < 25%) | # (# is < 25%) | # (# is < 25%) | CC1(C)CC2(CCN(C(=O)OC(C(F)(F)F)C(F)(F)F)CC2)CN1Cc1ccc(C(F)(F)F)cc1N1CCC2(CCOCC2)C1 [Example 52, 1,1,1,3,3,3-Hexafluoropropan-2-yl 2-(2-(8-oxa-2-azaspiro[4.5]decan-2-yl)-4-(trifluoromethyl)benzyl)-3,3-dimethyl-2,8-diazaspiro[4.5]decane-8-carboxylate]
### (### is ≥ 75%) | # (# is < 25%) | ### (### is ≥ 75%) | O=C(OC(C(F)(F)F)C(F)(F)F)N1CCC2(CCCN2Cc2cccc(Cl)c2)CC1 [Example 61, 1,1,1,3,3,3-Hexafluoropropan-2-yl 1-(3-chlorobenzyl)-1,8-diazaspiro[4.5]decane-8-carboxylate]
### (### is ≥ 75%) | # (# is < 25%) | # (# is < 25%) | O=C(OC(C(F)(F)F)C(F)(F)F)N1CCC2(CCCN2Cc2ccc(C(F)(F)F)cc2N2CCOCC2)CC1 [Example 67, 1,1,1,3,3,3-Hexafluoropropan-2-yl 1-(2-morpholino-4-(trifluoromethyl)benzyl)-1,8-diazaspiro[4.5]decane-8-carboxylate]
### (### is ≥ 75%) | # (# is < 25%) | # (# is < 25%) | CN1CCCc2ccc(CN3CCCC34CCN(C(=O)OC(C(F)(F)F)C(F)(F)F)CC4)cc21 [Example 68, 1,1,1,3,3,3-Hexafluoropropan-2-yl 1-((1-methyl-1,2,3,4-tetrahydroquinolin-7-yl)methyl)-1,8-diazaspiro[4.5]decane-8-carboxylate]
### (### is ≥ 75%) | # (# is < 25%) | # (# is < 25%) | O=C(OC(C(F)(F)F)C(F)(F)F)N1CCC2(CCCN2Cc2ccc(Cl)cc2N2CC3CCC(C2)O3)CC1 [Example 75, 1,1,1,3,3,3-Hexafluoropropan-2-yl 1-(2-(8-oxa-3-azabicyclo[3.2.1]octan-3-yl)-4-chlorobenzyl)-1,8-diazaspiro[4.5]decane-8-carboxylate]
### (### is ≥ 75%) | # (# is < 25%) | # (# is < 25%) | O=C(OC(C(F)(F)F)C(F)(F)F)N1CCC2(CCCN2Cc2ccc(Cl)cc2N2CCCC2)CC1 [Example 76, 1,1,1,3,3,3-Hexafluoropropan-2-yl 1-(4-chloro-2-(pyrrolidin-1-yl)benzyl)-1,8-diazaspiro[4.5]decane-8-carboxylate]
### (### is ≥ 75%) | # (# is < 25%) | # (# is < 25%) | O=C(OC(C(F)(F)F)C(F)(F)F)N1CCC2(CCCN2Cc2ccc(Cl)cc2N2CCOCC2)CC1 [Example 77, 1,1,1,3,3,3-Hexafluoropropan-2-yl 1-(4-chloro-2-morpholinobenzyl)-1,8-diazaspiro[4.5]decane-8-carboxylate]
### (### is ≥ 75%) | # (# is < 25%) | # (# is < 25%) | O=C(OC(C(F)(F)F)C(F)(F)F)N1CCC2(CCCN2Cc2cccc(N3CCOCC3)c2Cl)CC1 [Example 79, 1,1,1,3,3,3-Hexafluoropropan-2-yl 1-(2-chloro-3-morpholinobenzyl)-1,8-diazaspiro[4.5]decane-8-carboxylate]
### (### is ≥ 75%) | # (# is < 25%) | # (# is < 25%) | O=C(OC(C(F)(F)F)C(F)(F)F)N1CCC2(CCCN2Cc2cccc(N3CCCC3)c2Cl)CC1 [Example 81, 1,1,1,3,3,3-Hexafluoropropan-2-yl 1-(2-chloro-3-(pyrrolidin-1-yl)benzyl)-1,8-diazaspiro[4.5]decane-8-carboxylate]
### (### is ≥ 75%) | # (# is < 25%) | # (# is < 25%) | O=C(OC(C(F)(F)F)C(F)(F)F)N1CCC2(CCCN2Cc2cccc(N3CC4CCC(C3)O4)c2Cl)CC1 [Example 82, 1,1,1,3,3,3-Hexafluoropropan-2-yl 1-(3-(8-oxa-3-azabicyclo[3.2.1]octan-3-yl)-2-chlorobenzyl)-1,8-diazaspiro[4.5]decane-8-carboxylate]
### (### is ≥ 75%) | # (# is < 25%) | # (# is < 25%) | Cc1c(CN2CCCC23CCN(C(=O)OC(C(F)(F)F)C(F)(F)F)CC3)cccc1N1CCCCC1 [Example 84, 1,1,1,3,3,3-Hexafluoropropan-2-yl 1-(2-methyl-3-(piperidin-1-yl)benzyl)-1,8-diazaspiro[4.5]decane-8-carboxylate]
### (### is ≥ 75%) | # (# is < 25%) | # (# is < 25%) | Cc1c(CN2CCCC23CCN(C(=O)OC(C(F)(F)F)C(F)(F)F)CC3)cccc1N1CCCC1 [Example 85, 1,1,1,3,3,3-Hexafluoropropan-2-yl 1-(2-methyl-3-(pyrrolidin-1-yl)benzyl)-1,8-diazaspiro[4.5]decane-8-carboxylate]
### (### is ≥ 75%) | # (# is < 25%) | # (# is < 25%) | Cc1c(CN2CCCC23CCN(C(=O)OC(C(F)(F)F)C(F)(F)F)CC3)cccc1N1CC2CCC(C1)O2 [Example 86, 1,1,1,3,3,3-Hexafluoropropan-2-yl 1-(3-(8-oxa-3-azabicyclo[3.2.1]octan-3-yl)-2-methylbenzyl)-1,8-diazaspiro[4.5]decane-8-carboxylate]
